The values below come from ChEMBL document CHEMBL1149117, “Synthesis and monoamine transporter binding of 2-(diarylmethoxymethyl)-3 beta-aryltropane derivatives” (J Med Chem, 2004).

pKi: −log10 of the molar value.

The term pKi denotes the negative decadic logarithm of the Ki, by convention in mol/L. Read a low pKi as a high Ki.

The target in assay [1] is Sodium-dependent dopamine transporter (Rattus norvegicus, UniProt P23977). Kind of assay: Binding affinity against dopamine transporter by using [3H]WIN-35428 as a radioligand.
Assay [2] addresses T1, Muscarinic acetylcholine receptor M1 (Rattus norvegicus, UniProt P08482).
T1 sequence (P08482 whole entry): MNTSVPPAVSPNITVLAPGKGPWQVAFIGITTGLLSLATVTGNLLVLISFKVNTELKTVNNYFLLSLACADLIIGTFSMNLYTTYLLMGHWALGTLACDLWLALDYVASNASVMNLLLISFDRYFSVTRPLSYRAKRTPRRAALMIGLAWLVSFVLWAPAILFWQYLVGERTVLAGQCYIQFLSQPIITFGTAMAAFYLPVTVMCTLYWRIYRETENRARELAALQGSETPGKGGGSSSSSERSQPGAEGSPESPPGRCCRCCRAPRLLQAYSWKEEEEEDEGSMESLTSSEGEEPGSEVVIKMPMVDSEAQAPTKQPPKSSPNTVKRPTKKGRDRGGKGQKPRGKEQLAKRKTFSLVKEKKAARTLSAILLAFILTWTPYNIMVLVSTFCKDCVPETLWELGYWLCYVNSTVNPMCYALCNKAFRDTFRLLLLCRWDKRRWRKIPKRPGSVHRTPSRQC
Kind of assay: Binding affinity against Muscarinic acetylcholine receptor M1 by using [3H]pirenzepine as a radioligand.

For assay [3], the target named is Norepinephrine transporter (Rattus norvegicus, UniProt Q9WTR4). Briefly: Binding affinity against norepinephrine transporter by using [3H]nisoxetine as a radioligand.
Assay [4] concerns the target Sodium-dependent serotonin transporter (Rattus norvegicus, UniProt P31652). Kind of assay: Binding affinity against serotonin transporter by using [3H]-citalopram as a radioligand.

Chain of Sodium-dependent serotonin transporter (P31652 whole entry): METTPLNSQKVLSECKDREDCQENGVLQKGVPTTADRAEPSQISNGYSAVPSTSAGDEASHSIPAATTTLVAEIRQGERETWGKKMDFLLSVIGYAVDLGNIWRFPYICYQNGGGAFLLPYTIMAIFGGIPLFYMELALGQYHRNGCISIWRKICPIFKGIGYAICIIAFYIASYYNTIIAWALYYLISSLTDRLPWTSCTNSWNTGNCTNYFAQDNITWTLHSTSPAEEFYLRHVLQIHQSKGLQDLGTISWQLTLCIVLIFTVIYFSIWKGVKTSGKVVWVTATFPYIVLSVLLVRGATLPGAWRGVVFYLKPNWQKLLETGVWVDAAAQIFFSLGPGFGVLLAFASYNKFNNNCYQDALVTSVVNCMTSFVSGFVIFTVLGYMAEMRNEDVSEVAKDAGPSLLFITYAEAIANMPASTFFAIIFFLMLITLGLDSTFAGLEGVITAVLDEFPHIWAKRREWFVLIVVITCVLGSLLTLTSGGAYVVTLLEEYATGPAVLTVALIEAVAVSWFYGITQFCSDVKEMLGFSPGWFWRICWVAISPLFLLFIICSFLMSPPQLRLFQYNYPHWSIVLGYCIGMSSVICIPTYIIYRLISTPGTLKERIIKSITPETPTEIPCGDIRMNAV
Chain of Norepinephrine transporter (Q9WTR4 whole entry): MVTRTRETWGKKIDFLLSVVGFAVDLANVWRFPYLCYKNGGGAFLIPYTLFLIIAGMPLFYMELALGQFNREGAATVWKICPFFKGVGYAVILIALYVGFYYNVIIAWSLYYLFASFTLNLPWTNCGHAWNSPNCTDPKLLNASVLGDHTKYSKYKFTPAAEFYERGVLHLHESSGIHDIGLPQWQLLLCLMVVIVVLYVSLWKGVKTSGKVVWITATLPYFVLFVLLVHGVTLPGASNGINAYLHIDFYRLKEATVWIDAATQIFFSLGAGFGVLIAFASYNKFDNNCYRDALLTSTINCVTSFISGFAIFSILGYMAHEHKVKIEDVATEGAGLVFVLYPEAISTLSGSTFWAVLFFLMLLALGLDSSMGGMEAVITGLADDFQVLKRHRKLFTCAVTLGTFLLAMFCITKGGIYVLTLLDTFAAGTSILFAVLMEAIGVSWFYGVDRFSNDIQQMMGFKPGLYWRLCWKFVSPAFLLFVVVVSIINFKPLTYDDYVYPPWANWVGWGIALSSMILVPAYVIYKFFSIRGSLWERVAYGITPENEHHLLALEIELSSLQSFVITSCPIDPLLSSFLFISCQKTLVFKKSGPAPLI
Chain of Sodium-dependent dopamine transporter (P23977 whole entry): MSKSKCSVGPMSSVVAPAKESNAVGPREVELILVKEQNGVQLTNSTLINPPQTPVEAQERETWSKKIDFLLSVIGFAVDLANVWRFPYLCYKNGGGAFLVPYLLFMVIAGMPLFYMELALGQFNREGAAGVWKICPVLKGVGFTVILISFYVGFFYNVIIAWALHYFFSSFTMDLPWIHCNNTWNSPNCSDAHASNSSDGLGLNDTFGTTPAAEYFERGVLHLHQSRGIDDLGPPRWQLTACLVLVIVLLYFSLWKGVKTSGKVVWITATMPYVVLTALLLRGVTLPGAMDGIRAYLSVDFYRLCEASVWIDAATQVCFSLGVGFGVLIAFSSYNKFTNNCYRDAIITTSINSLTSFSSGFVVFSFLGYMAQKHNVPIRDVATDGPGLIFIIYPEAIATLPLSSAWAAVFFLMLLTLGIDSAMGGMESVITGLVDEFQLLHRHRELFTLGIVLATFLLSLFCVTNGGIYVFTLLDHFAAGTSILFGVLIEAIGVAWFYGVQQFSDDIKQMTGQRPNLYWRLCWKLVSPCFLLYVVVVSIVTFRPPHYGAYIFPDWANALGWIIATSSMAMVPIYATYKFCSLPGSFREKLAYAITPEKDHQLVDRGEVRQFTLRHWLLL

Turning to `Cc1ccc(C2CC3CCC([C@@H]2COC(c2ccccc2)c2ccc(Cl)cc2)N3C)cc1` (some centres undefined), the pKi in assay [1] was 6.03; in assay [2] it was 4.74; in assay [3], 4.65; in assay [4], 6.00.
Turning to `CN1C2CCC1[C@H](COC(c1ccccc1)c1ccccc1)C(c1ccc(Cl)cc1)C2` (some centres undefined), the pKi in assay [1] is 6.32; in assay [2], 4.94; in assay [3], 5.40; in assay [4] it was 6.39.
For `Cc1ccc(C2CC3CCC([C@@H]2COC(c2ccccc2)c2ccccc2)N3C)cc1` (some centres undefined), in that order: 6.34, 4.90, 5.58 and 6.28.
With `CN1C2CCC1[C@H](COC(c1ccc(F)cc1)c1ccc(F)cc1)C(c1ccc(Cl)cc1)C2` (some centres undefined), the pKi in assay [1] was 6.60; in assay [2], 5.00; in assay [3] it was 4.28; in assay [4] it was 6.14.
The matching figures for `CN1C2CCC1[C@H](COC(c1ccccc1)c1ccc(Cl)cc1)C(c1ccc(Cl)cc1)C2` (some centres undefined): 6.26, 5.02, 5.25 and 5.89.
For `Cc1ccc(C2CC3CCC([C@@H]2COC(c2ccc(F)cc2)c2ccc(F)cc2)N3C)cc1` (some centres undefined), in that order: 6.16, 5.01, 4.80 and 6.10.
In the case of `Cc1ccc(C2CC3CCC([C@H]2COC(c2ccccc2)c2ccc(Cl)cc2)N3C)cc1` (some centres undefined), the negative logarithm of the Ki (pKi) was 7.10 in assay [1], 4.50 in assay [2], 5.36 in assay [3] and 6.35 in assay [4].
The matching figures for `CN1C2CCC1[C@@H](COC(c1ccc(F)cc1)c1ccc(F)cc1)C(c1ccc(Cl)cc1)C2` (some centres undefined): 7.00, 4.79, 5.54 and 6.61.
The matching figures for `Cc1ccc(C2CC3CCC([C@H]2COC(c2ccc(F)cc2)c2ccc(F)cc2)N3C)cc1` (some centres undefined): 7.21, 4.81, 5.74 and 6.63.
`CN1C2CCC1C(CCCOC(c1ccc(F)cc1)c1ccc(F)cc1)C(c1ccccc1)C2` (centres undefined) showed a pKi in assay [1] of 7.22.
On to `CN1C2CCC1[C@@H](COC(c1ccccc1)c1ccc(Cl)cc1)C(c1ccc(Cl)cc1)C2` (some centres undefined), for which the pKi in assay [1] is 7.12; in assay [2] it was 4.40; in assay [3] it was 5.69; in assay [4], 6.34.
In turn, `CN1C2CCC1[C@@H](COC(c1ccccc1)c1ccc(Cl)cc1)C(c1ccc(F)cc1)C2` (some centres undefined) showed a pKi in assay [1] of 6.95.
Still for that read-out and setting: under `CN1C2CCC1[C@@H](COC(c1ccccc1)c1ccccc1)C(c1ccc(F)cc1)C2` (some centres undefined) stands 7.31.
`CN1C2CCC1[C@@H](COC(c1ccc(F)cc1)c1ccc(F)cc1)C(c1ccc(F)cc1)C2` (some centres undefined) showed a pKi in assay [1] of 7.20.
For the compound `Cc1ccc(C2CC3CCC([C@H]2COC(c2ccccc2)c2ccccc2)N3C)cc1` (some centres undefined), the pKi in assay [1] is 7.47; in assay [2] it was 4.97; in assay [3] it was 6.16; in assay [4] it was 6.92.
Take `CN1C2CCC1C(CCCOC(c1ccccc1)c1ccc(Cl)cc1)C(c1ccccc1)C2` (centres undefined): the pKi in assay [1] was 6.58; in assay [2], 4.61; in assay [4], 7.35.
For `CN1C2CCC1C(CCCOC(c1ccccc1)c1ccccc1)C(c1ccccc1)C2` (centres undefined), the pKi in assay [1] was 6.86; in assay [2], 5.10; in assay [3] it was 6.68; in assay [4], 7.21.
The matching figures for `CN1C2CCC1[C@@H](COC(c1ccccc1)c1ccccc1)C(c1ccc(Cl)cc1)C2` (some centres undefined): 7.28, 4.96, 5.92 and 6.83.
